Structures are written as SMILES.

Consider 26 molecules from patent US8791108B2, “Inhibitors of human immunodeficiency virus replication” (priority 2011, dated 2014).

The first experiment deals with recombinant NL-Rluc virus. The experiment can be described thus: Inhibition of HIV replication (NL-RLuc luciferase reporter virus, MT-2 cells). Conditions: Human immunodeficiency virus 1, MT2, 120 h, read-out: Activity. It counts as cell-based. A general note: A reporter such as luciferase makes a cellular process visible.
With `Cc1nc2cc(C(=O)NCc3ccc(F)c(C4CC4)c3)nn2c(-c2cc(F)c3c(c2C)CCCO3)c1[C@H](OC(C)(C)C)C(=O)O` [Example 26], the EC50 is less than 0.1 µM.

As for `Cc1nc2cc(C(=O)NCCNc3ccccc3)nn2c(-c2cc(F)c3c(c2C)CCCO3)c1[C@H](OC(C)(C)C)C(=O)O` [Example 47, (2S)-2-(tert-butoxy)-2-(7-(8-fluoro-5-methylchroman-6-yl)-5-methyl-2-((2-(phenylamino)ethyl)carbamoyl)pyrazolo[1,5-a]pyrimidin-6-yl)acetic acid], the EC50 was 0.1 to 1 µM.

For the molecule `Cc1nc2cc(C(=O)NCCc3ccc(Cl)cc3)nn2c(-c2cc(F)c3c(c2C)CCCO3)c1[C@H](OC(C)(C)C)C(=O)O` [Example 112, (2S)-2-(tert-butoxy)-2-(2-((4-chlorophenethyl)carbamoyl)-7-(8-fluoro-5-methylchroman-6-yl)-5-methylpyrazolo[1,5-a]pyrimidin-6-yl)acetic acid], the EC50 is less than 0.1 µM.

For `Cc1nc2cc(C(=O)N3CCC(c4ccccc4)CC3)nn2c(-c2cc(F)c3c(c2C)CCCO3)c1[C@H](OC(C)(C)C)C(=O)O` [Example 78, (2S)-2-(tert-butoxy)-2-(7-(8-fluoro-5-methylchroman-6-yl)-5-methyl-2-(4-phenylpiperidine-1-carbonyl)pyrazolo[1,5-a]pyrimidin-6-yl)acetic acid], the EC50 was less than 0.1 µM.

For the molecule `COc1ccc(CNC(=O)c2cc3nc(C)c([C@H](OC(C)(C)C)C(=O)O)c(-c4cc(F)c5c(c4C)CCCO5)n3n2)cc1` [Example 110, (2S)-2-(tert-butoxy)-2-(7-(8-fluoro-5-methylchroman-6-yl)-2-((4-methoxybenzyl)carbamoyl)-5-methylpyrazolo[1,5-a]pyrimidin-6-yl)acetic acid], the EC50 was less than 0.1 µM.

In the case of `Cc1nc2cc(C(=O)N(C)CCC(C)C)nn2c(-c2cc(F)c3c(c2C)CCCO3)c1[C@H](OC(C)(C)C)C(=O)O` [Example 98, (2S)-2-(tert-butoxy)-2-(7-(8-fluoro-5-methylchroman-6-yl)-2-(isopentyl(methyl)carbamoyl)-5-methylpyrazolo[1,5-a]pyrimidin-6-yl)acetic acid], the EC50 was less than 0.1 µM.

With `Cc1nc2cc(C(=O)NCCCC3CCCCC3)nn2c(-c2cc(F)c3c(c2C)CCCO3)c1[C@H](OC(C)(C)C)C(=O)O` [Example 131], the EC50 is less than 0.1 µM.

As for `Cc1cc(CNC(=O)c2cc3nc(C)c([C@H](OC(C)(C)C)C(=O)O)c(C4=CCC(C)(C)CC4)n3n2)ccc1F` [Example 147, (S)-2-(tert-butoxy)-2-(7-(4,4-dimethylcyclohex-1-en-1-yl)-2-((4-fluoro-3-methylbenzyl)carbamoyl)-5-methylpyrazolo[1,5-a]pyrimidin-6-yl)acetic acid], the EC50 is less than 0.1 µM.

Regarding `Cc1nc2cc(C(=O)NCC34C[C@H]5C[C@@H](C3)C[C@@H](C4)C5)nn2c(-c2cc(F)c3c(c2C)CCCO3)c1[C@H](OC(C)(C)C)C(=O)O` [Example 126, (2S)-2-(2-(((3S,5S,7S)-adamantan-1-ylmethyl)carbamoyl)-7-(8-fluoro-5-methylchroman-6-yl)-5-methylpyrazolo[1,5-a]pyrimidin-6-yl)-2-(tert-butoxy)acetic acid], the EC50 is less than 0.1 µM.

With `Cc1nc2cc(C(=O)N3CCc4ccccc4C3)nn2c(-c2cc(F)c3c(c2C)CCCO3)c1[C@H](OC(C)(C)C)C(=O)O` [Example 79, (2S)-2-(tert-butoxy)-2-(7-(8-fluoro-5-methylchroman-6-yl)-5-methyl-2-(1,2,3,4-tetrahydroisoquinoline-2-carbonyl)pyrazolo[1,5-a]pyrimidin-6-yl)acetic acid], the EC50 is less than 0.1 µM.

Take `Cc1nc2cc(C(=O)NCc3ccccn3)nn2c(-c2cc(F)c3c(c2C)CCCO3)c1[C@H](OC(C)(C)C)C(=O)O` [Example 104, (2S)-2-(tert-butoxy)-2-(7-(8-fluoro-5-methylchroman-6-yl)-5-methyl-2-((pyridin-2-ylmethyl)carbamoyl)pyrazolo[1,5-a]pyrimidin-6-yl)acetic acid]: the EC50 was more than 1 µM.

Regarding `Cc1nc2cc(C(=O)NCCc3ccccc3)nn2c(-c2cc(F)c3c(c2C)CCCO3)c1[C@H](OC(C)(C)C)C(=O)O` [Example 48, (2S)-2-(tert-butoxy)-2-(7-(8-fluoro-5-methylchroman-6-yl)-5-methyl-2-(phenethylcarbamoyl)pyrazolo[1,5-a]pyrimidin-6-yl)acetic acid], the EC50 was less than 0.1 µM.

As to `Cc1nc2cc(C(=O)NCc3cccc(Cl)c3Cl)nn2c(-c2cc(F)c3c(c2C)CCCO3)c1[C@H](OC(C)(C)C)C(=O)O` [Example 117, (2S)-2-(tert-butoxy)-2-(2-((2,3-dichlorobenzyl)carbamoyl)-7-(8-fluoro-5-methylchroman-6-yl)-5-methylpyrazolo[1,5-a]pyrimidin-6-yl)acetic acid], the EC50 is less than 0.1 µM.

With `Cc1nc2cc(C(=O)NCCc3ccc(F)cc3)nn2c(-c2cc(F)c3c(c2C)CCCO3)c1[C@H](OC(C)(C)C)C(=O)O` [Example 57, (2S)-2-(tert-butoxy)-2-(7-(8-fluoro-5-methylchroman-6-yl)-2-((4-fluorophenethyl)carbamoyl)-5-methylpyrazolo[1,5-a]pyrimidin-6-yl)acetic acid], the EC50 is less than 0.1 µM.

With `Cc1nc2cc(C(=O)NCc3cccnc3)nn2c(-c2cc(F)c3c(c2C)CCCO3)c1[C@H](OC(C)(C)C)C(=O)O` [Example 61, (2S)-2-(tert-butoxy)-2-(7-(8-fluoro-5-methylchroman-6-yl)-5-methyl-2-((pyridin-3-ylmethyl)carbamoyl)pyrazolo[1,5-a]pyrimidin-6-yl)acetic acid], the EC50 was more than 1 µM.

As for `Cc1nc2cc(C(=O)NCc3ccc(F)cc3S(C)(=O)=O)nn2c(-c2cc(F)c3c(c2C)CCCO3)c1[C@H](OC(C)(C)C)C(=O)O` [Example 28, (2S)-2-(tert-butoxy)-2-(2-((4-fluoro-2-(methylsulfonyl)benzyl)carbamoyl)-7-(8-fluoro-5-methylchroman-6-yl)-5-methylpyrazolo[1,5-a]pyrimidin-6-yl)acetic acid], the EC50 lay in the range of 0.1 to 1 µM.

As for `Cc1nc2cc(C(=O)NCc3ccc(F)cc3-n3nncc3C)nn2c(-c2cc(F)c3c(c2C)CCCO3)c1[C@H](OC(C)(C)C)C(=O)O` [Example 10, (2S)-2-(tert-butoxy)-2-(2-((4-fluoro-2-(5-methyl-1H-1,2,3-triazol-1-yl)benzyl)carbamoyl)-7-(8-fluoro-5-methylchroman-6-yl)-5-methylpyrazolo[1,5-a]pyrimidin-6-yl)acetic acid], the EC50 was in the range of 0.1 to 1 µM.

For `Cc1nc2cc(C(=O)NCC3CCCO3)nn2c(-c2cc(F)c3c(c2C)CCCO3)c1[C@H](OC(C)(C)C)C(=O)O` (stereo partly drawn) [Example 77, (2S)-2-(tert-butoxy)-2-(7-(8-fluoro-5-methylchroman-6-yl)-5-methyl-2-(((tetrahydrofuran-2-yl)methyl)carbamoyl)pyrazolo[1,5-a]pyrimidin-6-yl)acetic acid], the EC50 fell in the range of 0.1 to 1 µM.

Consider `Cc1nc2cc(C(=O)NCCC3CCN(Cc4ccccc4)CC3)nn2c(-c2cc(F)c3c(c2C)CCCO3)c1[C@H](OC(C)(C)C)C(=O)O` [Example 72, (2S)-2-(2-((2-(1-benzylpiperidin-4-yl)ethyl)carbamoyl)-7-(8-fluoro-5-methylchroman-6-yl)-5-methylpyrazolo[1,5-a]pyrimidin-6-yl)-2-(tert-butoxy)acetic acid], for which the EC50 lay within 0.1 to 1 µM.

Turning to `Cc1nc2cc(C(=O)NCC3CC3)nn2c(-c2cc(F)c3c(c2C)CCCO3)c1[C@H](OC(C)(C)C)C(=O)O` [Example 43, (2S)-2-(tert-butoxy)-2-(2-((cyclopropylmethyl)carbamoyl)-7-(8-fluoro-5-methylchroman-6-yl)-5-methylpyrazolo[1,5-a]pyrimidin-6-yl)acetic acid], the EC50 lay in the range of 0.1 to 1 µM.

In the case of `Cc1cc(CNC(=O)c2cc3nc(C)c([C@H](OC(C)(C)C)C(=O)O)c(-c4ccc5c(c4Cl)NCCO5)n3n2)ccc1F` [Example 141, (2S)-2-(tert-Butoxy)-2-(7-(5-chloro-3,4-dihydro-2H-benzo[b][1,4]oxazin-6-yl)-2-((4-fluoro-3-methylbenzyl)carbamoyl)-5-methylpyrazolo[1,5-a]pyrimidin-6-yl)acetic acid], the EC50 fell in the range of 0.1 to 1 µM.

As to `Cc1nc2cc(C(=O)NCc3ccc(F)cc3O)nn2c(-c2cc(F)c3c(c2C)CCCO3)c1[C@H](OC(C)(C)C)C(=O)O` [Example 63, (2S)-2-(tert-butoxy)-2-(2-((4-fluoro-2-hydroxybenzyl)carbamoyl)-7-(8-fluoro-5-methylchroman-6-yl)-5-methylpyrazolo[1,4-a]pyrimidin-6yl)acetic acid], the EC50 was less than 0.1 µM.

In the case of `Cc1nc2cc(C(=O)NCC3CCN(C(=O)OC(C)(C)C)CC3)nn2c(-c2cc(F)c3c(c2C)CCCO3)c1[C@H](OC(C)(C)C)C(=O)O` [Example 59, (2S)-2-(tert-butoxy)-2-(2-(((1-(tert-butoxycarbonyl)piperidin-4-yl)methyl)carbamoyl)-7-(8-fluoro-5-methylchroman-6-yl)-5-methylpyrazolo[1,5-a]pyrimidin-6-yl)acetic acid], the EC50 is 0.1 to 1 µM.

Regarding `Cc1nc2cc(C(=O)NCCC(C)(C)C)nn2c(C2=CCC(C)(C)CC2)c1[C@H](OC(C)(C)C)C(=O)O` [Example 148, (S)-2-(tert-Butoxy)-2-(2-((3,3-dimethylbutyl)carbamoyl)-7-(4,4-dimethylcyclohex-1-en-1-yl)-5-methylpyrazolo[1,5-a]pyrimidin-6-yl)acetic acid], the EC50 is less than 0.1 µM.

On to `Cc1nc2cc(C(=O)NCc3nc4ccccc4s3)nn2c(-c2cc(F)c3c(c2C)CCCO3)c1[C@H](OC(C)(C)C)C(=O)O` [Example 122, (2S)-2-(2-((benzo[d]thiazol-2-ylmethyl)carbamoyl)-7-(8-fluoro-5-methylchroman-6-yl)-5-methylpyrazolo[1,5-a]pyrimidin-6-yl)-2-(tert-butoxy)acetic acid], for which the EC50 was less than 0.1 µM.

`Cc1cc(CNC(=O)c2nn3c(-c4cc(F)c5c(c4C)CCCO5)c([C@H](OC(C)(C)C)C(=O)O)c(C)nc3c2F)ccc1F` [Example 139, (2S)-2-(tert-Butoxy)-2-(3-fluoro-2-((4-fluoro-3-methylbenzyl)carbamoyl)-7-(8-fluoro-5-methylchroman-6-yl)-5-methylpyrazolo[1,5-a]pyrimidin-6-yl)acetic acid]: the EC50 is less than 0.1 µM.

Staying with this experiment, now noted: Human immunodeficiency virus 1, MT2, 120 h, read-out: EC50 μM.
With `Cc1nc2cc(C(=O)NCCNc3ccccc3)nn2c(-c2cc(F)c3c(c2C)CCCO3)c1[C@H](OC(C)(C)C)C(=O)O` [Example 47, (2S)-2-(tert-butoxy)-2-(7-(8-fluoro-5-methylchroman-6-yl)-5-methyl-2-((2-(phenylamino)ethyl)carbamoyl)pyrazolo[1,5-a]pyrimidin-6-yl)acetic acid], the EC50 was found to be 0.281 µM.

For `Cc1nc2cc(C(=O)NCCC3CCN(Cc4ccccc4)CC3)nn2c(-c2cc(F)c3c(c2C)CCCO3)c1[C@H](OC(C)(C)C)C(=O)O` [Example 72, (2S)-2-(2-((2-(1-benzylpiperidin-4-yl)ethyl)carbamoyl)-7-(8-fluoro-5-methylchroman-6-yl)-5-methylpyrazolo[1,5-a]pyrimidin-6-yl)-2-(tert-butoxy)acetic acid], the EC50 turned out to be 0.668 µM.

Take `Cc1cc(CNC(=O)c2cc3nc(C)c([C@H](OC(C)(C)C)C(=O)O)c(-c4ccc5c(c4Cl)NCCO5)n3n2)ccc1F` [Example 141, (2S)-2-(tert-Butoxy)-2-(7-(5-chloro-3,4-dihydro-2H-benzo[b][1,4]oxazin-6-yl)-2-((4-fluoro-3-methylbenzyl)carbamoyl)-5-methylpyrazolo[1,5-a]pyrimidin-6-yl)acetic acid]: the EC50 worked out at 0.114 µM.
